{"source": "patent US7993670B2", "about": "“Medical pad, and method for making and using” (General Wound Kare, Inc., priority 2003, dated 2011)", "test_system": "wound", "experiment": "Clinical experience: treatment of a patient's wound", "key": {"[1]": {"settings": "after a week of daily 1% gentian violet solution"}}, "source_text": "A change in the procedure was made. Instead of the direct application of the 1% gentian violet solution, a polyurethane pad, containing a reduced amount of gentian violet, mixed with glycerin and water, and then dried, was applied to the wound covered by the scab. Daily washings were continued and the scab was eventually debrided.", "data": [{"smiles": "CN(C)c1ccc(C(=C2C=CC(=[N+](C)C)C=C2)c2ccc(N(C)C)cc2)cc1", "note": "[gentian violet]", "values": [{"measurement": "scab formation", "setting": "1% gentian violet solution applied daily, wound washed daily with soap and water", "value": "scab was formed"}, {"measurement": "infection of the wound", "setting": "[1]", "value": "no evidence of any infection"}, {"measurement": "size of the wound", "setting": "[1]", "value": "remained the same"}, {"measurement": "staining of the painted wound area", "setting": "liquid gentian violet solution at 1% strength painted on the wound daily", "value": "stained purple"}]}]}
